We go through 2 compounds from publication PMC10719761 (Journal of the American Chemical Society, 2023).

Data set [1] in a line: Incubation with GSH at pH 7.4. The following applies: pH 7.4, within 4 h of incubation. In kind it is physicochemical.
The conditions of data set [2]: cited from earlier work.

For the compound `COc1ccc2c(c1)CCCN2C(=O)CCl` [Compound 11], the “corresponding GSH adduct produced” value in data set [1] is “more than 50%”.

Usually pKa stands for the negative logarithm of the acid dissociation constant. Take `N[C@@H](CCC(=O)N[C@@H](CS)C(=O)NCC(=O)O)C(=O)O` [GSH, glutathione]: in data set [2], the pKa was 9.17.
